ChEMBL document CHEMBL3822390, “Synthesis, characterization and anti-cancer activity of a peptide nucleolipid bioconjugate” (2016)

Tests used:
Assay type in all cases: functional
Malme-3M [1] = test: Cytotoxicity against human MALME-3M cells assessed as cell growth at 10 uM after 48 hrs by SRB assay; details: read-out: Activity
[2] = Cytotoxicity against human HOP92 cells assessed as cell growth at 10 uM after 48 hrs by SRB assay; details: HOP-92, 48 h, read-out: Activity
NCI-H322M = test: Cytotoxicity against human NCI-H322M cells assessed as cell growth at 10 uM after 48 hrs by SRB assay; details: read-out: Activity
CCRF-CEM = test: Cytotoxicity against human CCRF-CEM cells assessed as cell growth at 10 uM after 48 hrs by SRB assay; details: read-out: Activity
[3] = Cytotoxicity against human PC3 cells assessed as cell growth at 10 uM after 48 hrs by SRB assay; details: PC-3, 48 h, read-out: Activity
[4] = Cytotoxicity against human SF295 cells assessed as cell growth at 10 uM after 48 hrs by SRB assay; details: SF-295, 48 h, read-out: Activity
M14 [5] = test: Cytotoxicity against human M14 cells assessed as cell growth at 7.25 uM after 48 hrs by SRB assay; details: M14, 48 h, read-out: Activity
[6] = Cytotoxicity against human HL-60(TB) cells assessed as cell growth at 7.25 uM after 48 hrs by SRB assay; details: HL-60, 48 h, read-out: Activity
[7] = Cytotoxicity against human HCT15 cells assessed as cell growth at 7.25 uM after 48 hrs by SRB assay; details: HCT-15, 48 h, read-out: Activity
[8] = Cytotoxicity against human IGROV1 cells assessed as cell growth at 7.25 uM after 48 hrs by SRB assay; details: IGROV-1, 48 h, read-out: Activity
[9] = Cytotoxicity against human SKOV3 cells assessed as cell growth at 7.25 uM after 48 hrs by SRB assay; details: SK-OV-3, 48 h, read-out: Activity
[10] = Cytotoxicity against human UO31 cells assessed as cell growth at 7.25 uM after 48 hrs by SRB assay; details: UO-31, 48 h, read-out: Activity
MDA-MB-435 [11] = test: Cytotoxicity against human MDA-MB-435 cells assessed as cell growth at 7.25 uM after 48 hrs by SRB assay; details: MDA-MB-435, 48 h, read-out: Activity
NCI-H522 = test: Cytotoxicity against human NCI-H522 cells assessed as cell growth at 7.25 uM after 48 hrs by SRB assay; details: NCI-H522, 48 h, read-out: Activity
A549 = test: Cytotoxicity against human A549 cells assessed as cell growth at 7.25 uM after 48 hrs by SRB assay; details: A549, 48 h, read-out: Activity
[12] = Cytotoxicity against human SF268 cells assessed as cell growth at 7.25 uM after 48 hrs by SRB assay; details: SF-268, 48 h, read-out: Activity
[13] = Cytotoxicity against human RXF393 cells assessed as cell growth at 2.13 uM after 48 hrs by SRB assay; details: RXF 393, 48 h, read-out: Activity
[14] = Cytotoxicity against human SNB19 cells assessed as cell growth at 2.13 uM after 48 hrs by SRB assay; details: SNB-19, 48 h, read-out: Activity
MDA-MB-435 [15] = test: Cytotoxicity against human MDA-MB-435 cells assessed as cell growth at 2.13 uM after 48 hrs by SRB assay; details: MDA-MB-435, 48 h, read-out: Activity
[16] = Cytotoxicity against human NCI-ADR-RES cells assessed as cell growth at 2.13 uM after 48 hrs by SRB assay; details: read-out: Activity
ACHN = test: Cytotoxicity against human ACHN cells assessed as cell growth at 2.13 uM after 48 hrs by SRB assay; details: read-out: Activity
[17] = Cytotoxicity against human OVCAR3 cells assessed as cell growth at 2.13 uM after 48 hrs by SRB assay; details: OVCAR-3, 48 h, read-out: Activity
[18] = Cytotoxicity against human Hs 578T cells assessed as cell growth at 2.13 uM after 48 hrs by SRB assay; details: read-out: Activity
NCI-H226 = test: Cytotoxicity against human NCI-H226 cells assessed as cell growth at 2.13 uM after 48 hrs by SRB assay; details: NCI-H226, 48 h, read-out: Activity
786-0 = test: Cytotoxicity against human 786-0 cells assessed as cell growth at 2.13 uM after 48 hrs by SRB assay; details: 786-0, 48 h, read-out: Activity
M14 [19] = test: Cytotoxicity against human M14 cells assessed as cell growth at 2.13 uM after 48 hrs by SRB assay; details: M14, 48 h, read-out: Activity
Malme-3M [20] = test: Cytotoxicity against human MALME-3M cells assessed as cell growth at 2.13 uM after 48 hrs by SRB assay; details: read-out: Activity

Structure (SMILES): CC(C)C[C@H](NC(=O)[C@H](CCCCN)NC(=O)[C@H](C)NC(=O)[C@H](CC(C)C)NC(=O)[C@H](CCCCN)NC(=O)[C@H](CCCCN)NC(=O)[C@H](C)NC(=O)[C@H](CC(C)C)NC(=O)[C@H](CCCCN)NC(=O)[C@H](C)NC(=O)[C@H](CC(C)C)NC(=O)[C@H](CCCCN)NC(=O)[C@@H](N)CC(=O)O)C(=O)N[C@@H](C)C(=O)N[C@@H](CCCCN)C(=O)N[C@@H](C)C(=O)N[C@@H](CCCCN)C(N)=O
- growth at 10 µM (Malme-3M [1]): 107%
- growth at 10 µM [2]: 86.1%
- growth at 10 µM (NCI-H322M): 110%
- growth at 10 µM (CCRF-CEM): 108%
- growth at 10 µM [3]: 94.7%
- growth at 10 µM [4]: 103%

Structure (SMILES): CCCCCCCCCCCCCCCC(=O)NCCCC[C@H](NC(=O)[C@H](C)NC(=O)[C@H](CCCCN)NC(=O)[C@H](C)NC(=O)[C@H](CC(C)C)NC(=O)[C@H](CCCCN)NC(=O)[C@H](C)NC(=O)[C@H](CC(C)C)NC(=O)[C@H](CCCCN)NC(=O)[C@H](CCCCN)NC(=O)[C@H](C)NC(=O)[C@H](CC(C)C)NC(=O)[C@H](CCCCN)NC(=O)[C@H](C)NC(=O)[C@H](CC(C)C)NC(=O)[C@H](CCCCN)NC(=O)[C@@H](N)CC(=O)O)C(N)=O
- growth at 7.25 µM (M14 [5]): 102%
- growth at 7.25 µM [6]: 93.1%
- growth at 7.25 µM [7]: 109%
- growth at 7.25 µM [8]: 108%
- growth at 7.25 µM [9]: 99.8%
- growth at 7.25 µM [10]: 87.3%
- growth at 7.25 µM (MDA-MB-435 [11]): 113%
- growth at 7.25 µM (NCI-H522): 83.5%
- growth at 7.25 µM (A549): 67.6%
- growth at 7.25 µM [12]: 105%

Structure (SMILES): CCCCCCCCCCCCCCCCNCCO[C@H]1C[C@H](n2cc(C)c(=O)[nH]c2=O)O[C@@H]1C(=O)NCCCC[C@H](NC(=O)[C@H](C)NC(=O)[C@H](CCCCN)NC(=O)[C@H](C)NC(=O)[C@H](CC(C)C)NC(=O)[C@H](CCCCN)NC(=O)[C@H](C)NC(=O)[C@H](CC(C)C)NC(=O)[C@H](CCCCN)NC(=O)[C@H](CCCCN)NC(=O)[C@H](C)NC(=O)[C@H](CC(C)C)NC(=O)[C@H](CCCCN)NC(=O)[C@H](C)NC(=O)[C@H](CC(C)C)NC(=O)[C@H](CCCCN)NC(=O)[C@@H](N)CC(=O)O)C(N)=O
- growth at 2.13 µM [13]: 113%
- growth at 2.13 µM [14]: 106%
- growth at 2.13 µM (MDA-MB-435 [15]): 109%
- growth at 2.13 µM [16]: 109%
- growth at 2.13 µM (ACHN): 106%
- growth at 2.13 µM [17]: 107%
- growth at 2.13 µM [18]: 101%
- growth at 2.13 µM (NCI-H226): 96.5%
- growth at 2.13 µM (786-0): 107%
- growth at 2.13 µM (M14 [19]): 98.5%
- growth at 2.13 µM (Malme-3M [20]): 104%
